Source: patent publication US10167262B2, “Herbicidal substituted 3-arylpyrazoles” (FMC CORPORATION, priority 2014, dated 2019)

Legend:
Type in all cases: in vivo
[1] = tested on: canarygrass (Phalaris minor); experiment: Test C postemergence greenhouse test, plant response rating 0-100; conditions: for Plant response rating, Canarygrass: scale 0 to 100
Procedure, shortened: (§1)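 Potted in peat/vermiculite mix; postemergence application at 1–4 leaves (2–18 cm); greenhouse 13–15 d; visual score 0–100 relative to untreated plants; dash = no test result.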

[2] = tested on: cocklebur (common cocklebur, Xanthium strumarium); experiment: as above; conditions: for Plant response rating, Cocklebur: scale 0 to 100
Procedure, shortened: as §1

[3] = tested on: deadnettle (henbit deadnettle, Lamium amplexicaule); experiment: as above; conditions: for Plant response rating, Deadnettle: scale 0 to 100
Procedure, shortened: as §1

[4] = tested on: goosegrass (Eleusine indica); experiment: as above; conditions: for Plant response rating, Goosegrass: scale 0 to 100
Procedure, shortened: as §1

[5] = tested on: woolly cupgrass (Eriochloa villosa); experiment: as above; conditions: for Plant response rating, Cupgrass, Woolly: scale 0 to 100
Procedure, shortened: as §1

[6] = tested on: barnyardgrass (Echinochloa crus-galli); experiment: Test E pre-/postemergence greenhouse test, plant response rating 0-100; conditions: Postemergence, scale 0 to 100
Procedure, shortened: (§2)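 Sow seeds in silt loam and treat preemergence; at the same time, spray postemergence on 1- to 4-leaf plants in peat/vermiculite mix. Use a non-phytotoxic solvent plus surfactant as carrier. Hold 14–21 days in greenhouse, then score visually 0–100 against controls.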

[7] = tested on: sandbur (southern sandbur, Cenchrus echinatus); experiment: as above; conditions: Postemergence, scale 0 to 100
Procedure, shortened: as §2

soybean (Glycine max) = experiment: as above; conditions: Postemergence, scale 0 to 100
Procedure, shortened: as §2

Compound	Plant response rating (0 to 100), Canarygrass ([1]; 62 g ai/ha)	Plant response rating (0 to 100), Canarygrass ([1]; 125 g ai/ha)	Plant response rating, Canarygrass ([1]; 250 g ai/ha)	Plant response rating (0 to 100), Cocklebur ([2]; 62 g ai/ha)	Plant response rating (0 to 100), Cocklebur ([2]; 125 g ai/ha)	Plant response rating, Cocklebur ([2]; 250 g ai/ha)	Plant response rating (0 to 100), Deadnettle ([3]; 62 g ai/ha)	Plant response rating (0 to 100), Deadnettle ([3]; 125 g ai/ha)	Plant response rating, Deadnettle ([3]; 250 g ai/ha)	Plant response rating (0 to 100), Goosegrass ([4]; 62 g ai/ha)	Plant response rating (0 to 100), Goosegrass ([4]; 125 g ai/ha)	Plant response rating, Goosegrass ([4]; 250 g ai/ha)	Plant response rating (0 to 100), Cupgrass, Woolly ([5]; 62 g ai/ha)	Plant response rating (0 to 100), Cupgrass, Woolly ([5]; 125 g ai/ha)	Plant response rating, Cupgrass, Woolly ([5]; 250 g ai/ha)	Plant response rating, Barnyardgrass ([6]; 31 g ai/ha)	Plant response rating, Barnyardgrass ([6]; 62 g ai/ha)	Plant response rating, Barnyardgrass ([6]; 125 g ai/ha)	Plant response rating, Barnyardgrass ([6]; 250 g ai/ha)	Plant response rating, Sandbur ([7]; 31 g ai/ha)	also measured
ON=C(c1ccccc1)c1c[nH]nc1-c1cc(Cl)cc(Cl)c1 [Compound 50]	0	0	0	15	55	90	0	0	40	0	0	0	0	0	0	0	0	0	0	0	Plant response rating (0 to 100), Canarygrass ([1]; 31 g ai/ha): 0; Plant response rating (0 to 100), Cocklebur ([2]; 31 g ai/ha): 5; Plant response rating (0 to 100), Deadnettle ([3]; 31 g ai/ha): 0; Plant response rating (0 to 100), Goosegrass ([4]; 31 g ai/ha): 0; Plant response rating (0 to 100), Cupgrass, Woolly ([5]; 31 g ai/ha): 0; Plant response rating, Barnyardgrass ([6]; 500 g ai/ha): 10; Plant response rating, Sandbur ([7]; 62 g ai/ha): 0; Plant response rating, Sandbur ([7]; 125 g ai/ha): 0; Plant response rating, Sandbur ([7]; 250 g ai/ha): 0; Plant response rating, Sandbur ([7]; 500 g ai/ha): 0; Plant response rating, Soybean (soybean (Glycine max); 31 g ai/ha): 0; Plant response rating, Soybean (soybean (Glycine max); 62 g ai/ha): 0; Plant response rating, Soybean (soybean (Glycine max); 125 g ai/ha): 0; Plant response rating, Soybean (soybean (Glycine max); 250 g ai/ha): 0; Plant response rating, Soybean (soybean (Glycine max); 500 g ai/ha): 0
Fc1cccc(NN=C(c2ccccc2)c2c[nH]nc2-c2cc(Cl)cc(Cl)c2)c1 [Compound 58]	0	0	0	60	75	80	0	0	0	0	0	0	0	0	0	0	0	0	0	0	Plant response rating, Canarygrass ([1]; 500 g ai/ha): 0; Plant response rating, Cocklebur ([2]; 500 g ai/ha): 95; Plant response rating, Deadnettle ([3]; 500 g ai/ha): 0; Plant response rating, Goosegrass ([4]; 500 g ai/ha): 5; Plant response rating, Cupgrass, Woolly ([5]; 500 g ai/ha): 0; Plant response rating, Barnyardgrass ([6]; 500 g ai/ha): 0; Plant response rating, Sandbur ([7]; 62 g ai/ha): 0; Plant response rating, Sandbur ([7]; 125 g ai/ha): 0; Plant response rating, Sandbur ([7]; 250 g ai/ha): 0; Plant response rating, Sandbur ([7]; 500 g ai/ha): 0; Plant response rating, Soybean (soybean (Glycine max); 31 g ai/ha): 0; Plant response rating, Soybean (soybean (Glycine max); 62 g ai/ha): 0; Plant response rating, Soybean (soybean (Glycine max); 125 g ai/ha): 0; Plant response rating, Soybean (soybean (Glycine max); 250 g ai/ha): 0; Plant response rating, Soybean (soybean (Glycine max); 500 g ai/ha): 0
C=CCn1cc(C(=O)c2ccccc2)c(-c2cc(Cl)cc(Cl)c2)n1 [Compound 60]	0	0	0	15	20	50	0	0	0	0	0	0	0	5	5	0	0	0	0	0	Plant response rating (0 to 100), Canarygrass ([1]; 31 g ai/ha): 0; Plant response rating (0 to 100), Cocklebur ([2]; 31 g ai/ha): 10; Plant response rating (0 to 100), Deadnettle ([3]; 31 g ai/ha): 0; Plant response rating (0 to 100), Goosegrass ([4]; 31 g ai/ha): 0; Plant response rating (0 to 100), Cupgrass, Woolly ([5]; 31 g ai/ha): 0; Plant response rating, Barnyardgrass ([6]; 16 g ai/ha): 0; Plant response rating, Sandbur ([7]; 62 g ai/ha): 0; Plant response rating, Sandbur ([7]; 125 g ai/ha): 0; Plant response rating, Sandbur ([7]; 250 g ai/ha): 0; Plant response rating, Soybean (soybean (Glycine max); 31 g ai/ha): 0; Plant response rating, Soybean (soybean (Glycine max); 62 g ai/ha): 0; Plant response rating, Soybean (soybean (Glycine max); 125 g ai/ha): 0; Plant response rating, Soybean (soybean (Glycine max); 250 g ai/ha): 0
